Source: paper PMC5181585, “UMAMIT14 is an amino acid exporter involved in phloem unloading in Arabidopsis roots” (Journal of Experimental Botany, 2016)

Target: T1, UMAMIT18 (Arabidopsis thaliana, UniProt Q9LPF1)
T1 construct: gene At1g44800; cDNA in pDR196-Ws, expressed in yeast 22delta10alpha
T1 sequence (Q9LPF1 1-370): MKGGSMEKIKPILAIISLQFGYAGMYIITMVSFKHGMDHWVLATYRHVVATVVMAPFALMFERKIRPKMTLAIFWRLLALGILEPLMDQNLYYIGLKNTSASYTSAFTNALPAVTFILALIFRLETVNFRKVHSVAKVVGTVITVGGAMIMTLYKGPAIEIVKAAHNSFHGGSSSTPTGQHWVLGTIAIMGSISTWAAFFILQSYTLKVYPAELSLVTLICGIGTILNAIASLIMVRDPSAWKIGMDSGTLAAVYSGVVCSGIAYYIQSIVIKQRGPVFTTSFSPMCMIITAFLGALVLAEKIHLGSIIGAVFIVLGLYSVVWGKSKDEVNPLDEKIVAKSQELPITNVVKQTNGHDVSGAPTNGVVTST
Assay: amino acid secretion into medium by yeast, UPLC
Assay type: cell-based
Conditions: export, 22 h growth in minimal medium, yeast 22delta10alpha

Compound: CC(C)[C@H](N)C(=O)O [Val]
- amino acid secretion into medium by yeast, UPLC: Gln, Val, and Ile represented a larger proportion of the secreted amino acids for UMAMIT18

Compound: NC(=O)CC[C@H](N)C(=O)O [Gln]
- amino acid secretion into medium by yeast, UPLC (Gln peak not resolved from Arg): Gln, Val, and Ile represented a larger proportion of the secreted amino acids for UMAMIT18
